In US20060251638A1, “Cytoprotection through the use of hif hydroxylase inhibitors” (priority 2003, published 2006):

How the values were obtained:
[1] = system: gene encoding adrenomedullin; assay: Adrenomedullin gene expression in Hep3B cells (microarray); assay type: cell-based, human; conditions: 25 μM compound, 6 hrs, average of two determinations
Experimental: Hep3B cells (ATCC No. HB-8064) were grown in DMEM containing 8% fetal bovine serum. Hep3B cells were seeded into 6-well culture dishes at ˜500,000 cells per well. After 8 hours, the media was changed to DMEM containing 0.5% fetal bovine serum and the cells were incubated for an additional 16 hours. Compound A, compound B, compound C, compound G, or compound H was added to the cells (25 μM final concentration) and the cells were incubated for various times. Control cells were incubated with vehicle (DMSO) with no compound treatment. Harvested cells were assessed for cell viability (GUAVA), or added to RNA extraction buffer (RNeasy, Qiagen) and stored at −20° C. for subsequent RNA purification.
RNA was precipitated in 0.3 M sodium acetate (pH 5.2), 50 ng/ml glycogen, and 2.5 volumes of ethanol for one hour at −20° C. Samples were centrifuged and pellets were washed with cold 80% ethanol, dried, and resuspend in water. Double stranded cDNA was synthesized using a T7-(dT)24 first strand primer (Affymetrix, Inc., Santa Clara Calif.) and the SUPERSCRIPT CHOICE system (Invitrogen) according to the manufacturer's instructions. The final cDNA was extracted with an equal volume of 25:24:1 phenol:chloroform:isoamyl alcohol using a PHASE LOCK GEL insert (Brinkman, Inc., Westbury N.Y.). The aqueous phase was collected and cDNA was precipitated using 0.5 volumes of 7.5 M ammonium acetate and 2.5 volumes of ethanol. Alternatively, cDNA was purified using the GENECHIP sample cleanup module (Affymetrix) according to the manufacturer's instructions.
Biotin-labeled cRNA was synthesized from the cDNA in an in vitro […] (IVT) reaction using a BIOARRAY HighYield RNA transcript labeling kit (Enzo Diagnostics, Inc., Farmingdale N.Y.) according to the manufacturer's instructions. Final labeled product was purified and fragmented using the GENECHIP sample cleanup module (Affymetrix) according to the manufacturer's instructions.
Hybridization cocktail was prepared by bringing 5 μg probe to 100 μl in 1× hybridization buffer (100 mM MES, 1 M [Na^+], 20 mM EDTA, 0.01% Tween 20), 100 μg/ml herring sperm DNA, 500 μg/ml acetylated BSA, 0.03 nM contol oligo B2 (Affymetrix), and 1× GENECHIP eukaryotic hybridization control (Affymetrix). The cocktail was sequentially incubated at 99° C. for 5 minutes and 45° C. for 5 minutes, and then centrifuged for 5 minutes. The […] array (Affymetrix) was brought to room temperature and then prehybridized with 1× hybridization buffer at 45° C. for 10 minutes with rotation. The buffer was then replaced with 80 μl hybridization cocktail and the array was hybridized for 16 hours at 45° C. at 60 rpm with counter balance. Following hybridization, arrays were washed once with 6×SSPE, 0.1% Tween 20, and then washed and stained using R-phycoerythrin-conjugated streptavidin (Molecular Probes, Eugene Oreg.), goat anti-streptavidin antibody (Vector Laboratories, Burlingame Calif.), and a GENECHIP Fluidics Station 400 instrument (Affymetrix) according to the manufacturer's EukGE-WS2v4 protocol (Affymetrix). Arrays were analyzed using a GENEARRAY scanner (Affymetrix) and Microarray Suite software (Affymetrix).
RNA quality was monitored by capillary electrophoresis (Agilent Bioanalyzer). […] Array performance was analyzed with Affymetrix MicroArray Suite (MAS) software and individual probe sets were assigned “present”, “marginal, and “absent” calls according to software defaults. […]

[2] = system: H9c2 rat cardiomyocytes; assay: Intracellular ATP levels in H9c2 cardiomyocytes after oxygen and glucose deprivation (glucose-free DMEM, 2 mM KCN); assay type: cell-based; conditions: H9c2, 20 μM pretreatment 24 hours, glucose-free DMEM and 2 mM KCN for 30 minutes; vehicle control 415
Experimental: In similar experiments, H9c2 rat cardiomyocytes were pretreated with either vehicle control (0.5% DMSO) or 20 μM of Compound A, Compound B, Compound C, Compound D, Compound E, Compound F, Compound G, or compound H. After 24 hours, cells were washed with serum-free DMEM and subjected to oxygen and glucose deprivation by incubating the cells in glucose-free DMEM and 2 mM KCN for 30 minutes. Intracellular ATP levels were then determined.

[3] = system: adrenomedullin gene expression; assay: Adrenomedullin gene expression in H9c2 cardiomyocytes with or without KCN challenge; assay type: cell-based, rat; conditions: H9c2, 10 μM compound 24 hours
Experimental: Adrenomedullin gene expression was also examined in cardiomyocytes treated with compound and subsequently challenged with KCN, an inhibitor of oxidative glucose metabolism. H9c2 rat cardiomyocytes were cultured in 96-well tissue culture plates (approximately 20,000 cells per well) in DMEM containing 10% fetal bovine serum. Media was changed to DMEM containing 0.5% fetal bovine serum, and the cells were treated with 10 μM compound C or compound D for 24 hours. Media was then replaced with glucose-free DMEM (Gibco/Invitrogen Cat. # 11966-025) containing 2 mM KCN (Sigma-Aldrich Cat. No. 207810). Results of adrenomedullin gene expression, presented as fold-increase in gene expression above DMSO control, are shown below in Table 2.

[4] = system: HO-1 protein; assay: HO-1 protein levels in H9c2 cardiomyocytes by ELISA; assay type: cell-based, rat; conditions: H9c2, 100 μM compound; control 2.86
Experimental: In another series of experiments, H9c2 rat cardiomyocytes were treated with either vehicle control or with various concentrations (1 μM, 3 μM, 10 μM, 30 μM, and 100 μM) of compound C or compound G. Cell lysates were harvested and HO-1 protein levels determined by ELISA according to the manufacturer's instructions (cat # EKS-810; Stressgen, Victoria, BC, Canada). Data shown below in Table 4 represents values obtain with 100 μM compound.

[5] = system: gene encoding HSP70-3; assay: HSP70-3 mRNA levels in mouse tissues after oral dosing (microarray); assay type: in vivo
Experimental: Twelve Swiss Webster male mice (30-32 g) were obtained from Simonsen, Inc (Gilroy, Calif.) and treated by oral gavage two times per day for 2.5 days (5 doses) with a 4 ml/kg volume of either 0.5% carboxymethyl cellulose (CMC; Sigma-Aldrich, St. Louis Mo.) (0 mg/kg/day) or 2.5% compound H (25 mg/ml in 0.5% CMC) (200 mg/kg/day). Four hours after the final dose, the mice were then sacrificed and approximately 150 mg of liver and each kidney were isolated and stored in RNALATER solution (Ambion) at −20° C.
To determine gene induction patterns over time, twenty four Swiss Webster male mice (30-32 g) were obtained from Simonsen, Inc. and treated by oral gavage with a 4 ml/kg volume of either 0.5% carboxymethyl cellulose (CMC; Sigma-Aldrich, St. Louis Mo.) (0 mg/kg) or […] compound H (25 mg/ml in 0.5% CMC) (100 mg/kg). At 4, 8, 16, 24, 48, or 72 hours after the final dose, animals were anesthetized with isoflurane. The mice were then sacrificed and tissue samples of kidney, liver, brain, lung, and heart were isolated and stored in RNALATER solution (Ambion) at −80° C. RNA isolation and gene expression analysis were performed as described below.
RNA isolation was carried out using the following protocol. A section of each organ was diced, 875 μl of RLT buffer (RNEASY kit; Qiagen Inc., Valencia Calif.) was added, and the pieces were homogenized for about 20 seconds using a rotor-stator POLYTRON homogenizer (Kinematica, Inc., Cincinnati Ohio). […] The RNA was eluted into […] of water and quantitated with RIBOGREEN reagent (Molecular Probes, Eugene Oreg.). The absorbance at 260 and 280 nm was measured to determine RNA purity and concentration.
Alternatively, tissue samples were diced and homogenized in TRIZOL reagent (Invitrogen Life Technologies, Carlsbad Calif.) using a rotor-stator POLYTRON homogenizer (Kinematica). […] The absorbance at 260 and 280 nm was measured to determine RNA purity and concentration. […]

[6] = then glucose-free DMEM with 2 mM KCN
[7] = Animal Study III: mice, oral gavage, 100 mg/kg

O=C(O)c1c[nH]c2c(ccc3cccnc32)c1=O [Compound A, 4-Oxo-1,4-dihydro-[1,10]phenanthroline-3-carboxylic acid]
Adrenomedullin gene expression, fold-increase above non-treated control [1]: 3.582 fold
ATP (relative light units) [2]: 968.5 relative light units

COc1ccc(CCN(CCC(=O)NO)S(=O)(=O)c2ccc(NC(=O)N(Cc3ccccc3)Cc3ccccc3)cc2)cc1 [Compound B, 3-{[4-(3,3-Dibenzyl-ureido)-benzenesulfonyl]-[2-(4-methoxy-phenyl)-ethyl]-amino}-N-hydroxy-propionamide]
Adrenomedullin gene expression, fold-increase above non-treated control [1]: 8.334 fold
ATP (relative light units) [2]: 683.5 relative light units

O=C(O)CNC(=O)c1ncc2cc(Sc3ccccc3)ccc2c1O [Compound C, [(4-Hydroxy-7-phenylsulfanyl-isoquinoline-3-carbonyl)-amino]-acetic acid]
Adm gene expression, fold-increase above DMSO control ([3]; no KCN): 4.8 fold
Adm gene expression, fold-increase above DMSO control [3, 6]: 7.9 fold
Adrenomedullin gene expression, fold-increase above non-treated control [1]: 3.896 fold
HO-1 (ng/mg total cell protein) [4]: 102.68 ng/mg total cell protein
ATP (relative light units) [2]: 3710 relative light units

O=C(O)CNC(=O)c1ncc2ccc(Sc3ccccc3)cc2c1O [Compound D, [(4-Hydroxy-6-phenylsulfanyl-isoquinoline-3-carbonyl)-amino]-acetic acid]
Adm gene expression, fold-increase above DMSO control ([3]; no KCN): 2.2 fold
Adm gene expression, fold-increase above DMSO control [3, 6]: 4.2 fold
ATP (relative light units) [2]: 859.5 relative light units

O=C(O)CNC(=O)c1nc(Cl)c2cc(Oc3ccccc3)ccc2c1O [Compound E, [(1-Chloro-4-hydroxy-7-phenoxy-isoquinoline-3-carbonyl)-amino]-acetic acid]
ATP (relative light units) [2]: 2043 relative light units

O=C(O)CNC(=O)c1nc(Br)c2cc(Oc3ccccc3)ccc2c1O [Compound F, [(1-Bromo-4-hydroxy-7-phenoxy-isoquinoline-3-carbonyl)-amino]-acetic acid]
ATP (relative light units) [2]: 1134 relative light units

O=C(O)CNC(=O)c1nc(Cl)c2ccccc2c1O [Compound H, [(1-Chloro-4-hydroxy-isoquinoline-3-carbonyl)-amino]-acetic acid]
Adrenomedullin gene expression, fold-increase above non-treated control [1]: 1.298 fold
HSP70-3 mRNA Levels Liver ([5]; Animal Study I: mice, oral gavage two times per day for 2.5 days, 200 mg/kg/day, four hours after final dose): 2.77
HSP70-3 mRNA Levels Liver [5, 7]: 1.441
HSP70-3 mRNA Levels Lung [5, 7]: 3.0
ATP (relative light units) [2]: 947 relative light units
